Experimental data published in patent US9920074B2 (ACEA BIOSCIENCES INC., priority 2013, dated 2018).

Experiments:
[1] = biological target: T1, Btk (Tyr223) phosphorylation in Ramos cells (Homo sapiens, UniProt Q06187); test: Western blotting assay for Btk (Example 73); type: cell-based; details: 45 min, 6 μg/mL anti-IgM, read-out: Btk Inhibition
T1 construct: endogenous in cells; host or cells: Ramos cells (ATCC)
Experimental: (§1) All cell lines were obtained from the American Type Culture Collection and were maintained at 37° C. with 5% CO2. Ramos cell line was maintained in media supplemented with 10% fetal bovine serum, penicillin (100 units/mL) and streptomycin (100 μg/mL). NK-92 cell line was maintained in media supplemented with 10% fetal bovine serum and 10% horse serum, penicillin (100 units/mL) and streptomycin (100 μg/mL), IL-2 10 ng/mL. Goat F(ab′)2 Anti-Human IgM-UNLB was obtained from SouthernBiotech. IL-2 was obtained from Peprotech.
Ramos cells were treated with compounds at indicated doses for 45 min at room temperature, followed by stimulation of 6 μg/mL of anti-IgM for 30 min, and then lysed. Western blots were performed on the cell lysate using Phospho-Btk (Tyr223), Phospho-Btk (Tyr551), Btk, Phospho-PLCγ2 (Tyr1217), PLCγ2, Phospho-p44/42 MAPK (Erk1/2) (Thr202/Tyr204) and p44/42 MAPK (Erk1/2) antibodies (Cell Signaling Technology). The density of blotting band was acquired using ImageJ software, and the IC50 of Btk (Tyr223) phosphorylation was fitted using a non-linear regression model by GraphPad Prism.

[2] = system: Stat5 phosphorylation in NK-92 cells; test: Western blotting assay for Stat5; type: cell-based; details: NK92, 1 hour, IL-2 stimulation, read-out: Stat5 inhibition
Experimental: as §1
NK-92 cells were treated with compounds at the dosed indicated for 1 hour in incubator, followed by the IL-2 stimulation for 15 minutes. Cells were then collected and lysed to prepare the cellular extraction. Western blots were performed on cell lysate using Phospho-Jak3, Jak3, Phospho-Stat5, Stat5 antibodies (Cell Signaling Technology). The intensity of blotting band was acquired using Image Lab (Bio-Rad) software, and the IC50 of target was generated with GraphPad Prism.

T1 sequence (Q06187 whole entry): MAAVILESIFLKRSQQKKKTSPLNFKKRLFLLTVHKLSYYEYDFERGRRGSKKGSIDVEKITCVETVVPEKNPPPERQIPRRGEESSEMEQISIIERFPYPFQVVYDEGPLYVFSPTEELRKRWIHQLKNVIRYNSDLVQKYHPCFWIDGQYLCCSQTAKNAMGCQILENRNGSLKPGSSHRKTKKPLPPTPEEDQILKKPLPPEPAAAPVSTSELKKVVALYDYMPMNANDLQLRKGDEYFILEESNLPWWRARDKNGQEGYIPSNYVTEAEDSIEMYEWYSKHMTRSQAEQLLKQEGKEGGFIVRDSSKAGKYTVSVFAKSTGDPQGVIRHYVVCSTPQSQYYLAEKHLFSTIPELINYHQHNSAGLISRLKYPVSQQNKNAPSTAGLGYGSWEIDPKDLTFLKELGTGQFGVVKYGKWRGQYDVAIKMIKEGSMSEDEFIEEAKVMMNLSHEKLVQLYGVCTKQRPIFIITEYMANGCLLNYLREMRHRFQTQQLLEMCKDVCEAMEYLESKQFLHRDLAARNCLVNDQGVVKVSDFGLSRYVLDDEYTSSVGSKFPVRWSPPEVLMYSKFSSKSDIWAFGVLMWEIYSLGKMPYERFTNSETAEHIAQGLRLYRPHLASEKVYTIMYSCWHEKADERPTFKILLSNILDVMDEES

SMILES | IC50 [1] | IC50 [2]
C=CC(=O)Nc1cccc(Oc2nc(Nc3ccc4c(ccn4CCF)c3)ncc2OC)c1 [Compound I-43a, N-(3-(2-(1-(2-fluoroethyl)-1H-indol-5-ylamino)-5-methoxypyrimidin-4-yloxy)phenyl)acrylamide] | ≤ 10 nM | 200 to 400 nM
C=CC(=O)Nc1cccc(Oc2nc(Nc3ccc(OCCS(C)(=O)=O)cc3)ncc2OC)c1 [Compound I-44a, N-(3-(5-methoxy-2-(4-(2-(methylsulfonyl)ethoxy)phenylamino)pyrimidin-4-yloxy)phenyl)acrylamide] | ≤ 10 nM | 200 to 400 nM
C=CC(=O)Nc1cccc(Oc2nc(Nc3ccc(N(C)[C@H]4CCN(CCOC)C4)cc3)nc3[nH]ccc23)c1 [Compound I-49a, (S)—N-(3-(2-(4-((1-(2-methoxyethyl)pyrrolidin-3-yl)(methyl)amino)phenylamino)-7H-pyrrolo[2,3-d]pyrimidin-4-yloxy)phenyl)acrylamide] | ≤ 10 nM | ≥ 400 nM
C=CC(=O)Nc1cccc(Oc2nc(Nc3ccc4c(c3)CN(CCOC)C4)ncc2OC)c1 [Compound I-50a, N-(3-(5-methoxy-2-(2-(2-methoxyethyl)isoindolin-5-ylamino)pyrimidin-4-yloxy)phenyl)acrylamide] | 10 to 100 nM | ≥ 400 nM
C=CC(=O)Nc1cccc(Oc2nc(Nc3ccc(N4CCN(CCOC)CC4)c(F)c3)nc3[nH]ccc23)c1 [Compound I-48a, N-(3-(2-(3-fluoro-4-(4-(2-methoxyethyl)piperazin-1-yl)phenylamino)-7H-pyrrolo[2,3-d]pyrimidin-4-yloxy)phenyl)acrylamide] | ≤ 10 nM | 200 to 400 nM
C=CC(=O)Nc1cccc(Oc2nc(Nc3ccc(NCCOC)cc3)ncc2OC)c1 [Compound I-32a, N-(3-(5-methoxy-2-(4-(2-methoxyethylamino)phenylamino)pyrimidin-4-yloxy)phenyl)acrylamide] | ≤ 10 nM | ≥ 400 nM
C=CC(=O)Nc1cccc(Oc2nc(Nc3ccc(N[C@H]4CCN(CCOC)C4)cc3)nc3[nH]ccc23)c1 [Compound I-40a, (S)—N-(3-(2-(4-(1-(2-methoxyethyl)pyrrolidin-3-ylamino)phenylamino)-7H-pyrrolo[2,3-d]pyrimidin-4-yloxy)phenyl)acrylamide] | ≤ 10 nM | ≥ 400 nM
C=CC(=O)Nc1cccc(Oc2nc(Nc3ccc4c(c3)CCN4CCOC)ncc2OC)c1 [Compound I-34a, N-(3-(5-methoxy-2-(1-(2-methoxyethyl)indolin-5-ylamino)pyrimidin-4-yloxy)phenyl)acrylamide] | ≤ 10 nM | ≥ 400 nM
C=CC(=O)Nc1cccc(Oc2nc(Nc3ccc(N(C)CCOC)nc3)nc3[nH]ccc23)c1 [Compound I-46a, N-(3-(2-(6-((2-methoxyethyl)(methyl)amino)pyridin-3-ylamino)-7H-pyrrolo[2,3-d]pyrimidin-4-yloxy)phenyl)acrylamide] | 10 to 100 nM | ≥ 400 nM
C=CC(=O)Nc1cccc(Oc2nc(Nc3ccc4c(c3)CCN4CCOC)nc3[nH]ccc23)c1 [Compound I-36a, N-(3-(2-(1-(2-methoxyethyl)indolin-5-ylamino)-7H-pyrrolo[2,3-d]pyrimidin-4-yloxy)phenyl)acrylamide] | 10 to 100 nM | 200 to 400 nM
C=CC(=O)Nc1cccc(Oc2nc(Nc3ccc(N4CCN(CCS(C)(=O)=O)CC4)cc3)ncc2OC)c1 [Compound I-54a, N-(3-(5-methoxy-2-(4-(4-(2-(methylsulfonyl)ethyl)piperazin-1-yl)phenylamino)pyrimidin-4-yloxy)phenyl)acrylamide] | ≤ 10 nM | ≥ 400 nM
C=CC(=O)Nc1cccc(Oc2nc(Nc3cc(F)c(OCCOC)c(F)c3)nc3[nH]ccc23)c1 [Compound I-37a, N-(3-(2-(3,5-difluoro-4-(2-methoxyethoxy)phenylamino)-7H-pyrrolo[2,3-d]pyrimidin-4-yloxy)phenyl)acrylamide] | 10 to 100 nM | ≥ 400 nM
C=CC(=O)Nc1cccc(Oc2nc(Nc3ccc(N[C@H]4CCN(CCOC)C4)cc3)ncc2OC)c1 [Compound I-30a, (S)—N-(3-(5-methoxy-2-(4-(1-(2-methoxyethyl)pyrrolidin-3-ylamino)phenylamino)pyrimidin-4-yloxy)phenyl)acrylamide] | ≤ 10 nM | ≤ 200 nM
C=CC(=O)Nc1cccc(Oc2nc(Nc3ccc(N4CCN(C)CC4)c(F)c3)ncc2O)c1 [Compound I-23a, N-(3-(2-(3-fluoro-4-(4-methylpiperazin-1-yl)phenylamino)-5-hydroxypyrimidin-4-yloxy)phenyl)acrylamide] | 10 to 100 nM | ≥ 400 nM
C=CC(=O)Nc1cccc(Oc2nc(Nc3ccc(N(C)[C@H]4CCN(CCS(C)(=O)=O)C4)cc3)ncc2OC)c1 [Compound I-57a, (S)—N-(3-(5-methoxy-2-(4-(methyl(1-(2-(methylsulfonyl)ethyl)pyrrolidin-3-yl)amino)phenylamino)pyrimidin-4-yloxy)phenyl)acrylamide] | ≤ 10 nM | 200 to 400 nM
C=CC(=O)Nc1cccc(Oc2nc(Nc3ccc(N(C)[C@H]4CCN(CCOC)C4)cc3)ncc2OC)c1 [Compound I-42a, (S)—N-(3-(5-methoxy-2-(4-((1-(2-methoxyethyl)pyrrolidin-3-yl)(methyl)amino)phenylamino)pyrimidin-4-yloxy)phenyl)acrylamide] | ≤ 10 nM | ≥ 400 nM
C=CC(=O)Nc1cccc(Nc2nc(Nc3ccc(N[C@H]4CCN(CCOC)C4)cc3)ncc2OC)c1 [Compound I-31a, (S)—N-(3-(5-methoxy-2-(4-(1-(2-methoxyethyl)pyrrolidin-3-ylamino)phenylamino)pyrimidin-4-ylamino)phenyl)acrylamide] | ≤ 10 nM | ≥ 400 nM
C=CC(=O)Nc1cccc(Oc2nc(Nc3ccc(N(CCC)CCOC)cc3)ncc2OC)c1 [Compound I-38a, N-(3-(5-methoxy-2-(4-((2-methoxyethyl)(propyl)amino)phenylamino)pyrimidin-4-yloxy)phenyl)acrylamide] | 10 to 100 nM | ≥ 400 nM
C=CC(=O)Nc1cccc(Oc2nc(Nc3ccc4c(c3)CC(=O)N4CCOC)ncc2OC)c1 [Compound I-52a, N-(3-(5-methoxy-2-(1-(2-methoxyethyl)-2-oxoindolin-5-ylamino)pyrimidin-4-yloxy)phenyl)acrylamide] | ≤ 10 nM | ≥ 400 nM
C=CC(=O)Nc1cccc(Oc2nc(Nc3ccc(N(C4CC4)[C@H]4CCN(CCOC)C4)cc3)ncc2OC)c1 [Compound I-53a, (S)—N-(3-(2-(4-(cyclopropyl(1-(2-methoxyethyl)pyrrolidin-3-yl)amino)phenylamino)-5-methoxypyrimidin-4-yloxy)phenyl)acrylamide] | ≤ 10 nM | ≥ 400 nM
C=CCN(CCOC)c1ccc(Nc2ncc(OC)c(Oc3cccc(NC(=O)C=C)c3)n2)cc1 [Compound I-39a] | 10 to 100 nM | ≥ 400 nM
